Activity calls are given as the source filed them.
Legend:
[1] = A Cell Based Secondary Assay To Explore Cytotoxicity of Compounds that Sensitize Mycobacterium Tuberculosis to Beta-Lactam Antibiotics.; format: functional
14-3-3 protein gamma = 14-3-3 protein gamma (Homo sapiens, UniProt P61981); test: modulators of 14-3-3 gamma client binding – dose response (AID 711); format: functional
Genome polyprotein = Genome polyprotein (Hepatitis C virus, UniProt Q2Q167); test: HCV core protein dimerization inhibitors, dose response, biochemical, TR-FRET (AID 2159); design: species or system Hepacivirus hominis;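 further: blocks dimerization of HCV core protein measured by TR-FRET between tagged core106 pairs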
[2] = molecular target: T1, Probable nicotinate-nucleotide adenylyltransferase (Staphylococcus aureus (strain N315), UniProt P65502); format: functional, Staphylococcus aureus subsp. aureus N315; details: read-out: IC50_Mean;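 on IC50 Mean: confirmatory dose-response retesting of NadD inhibitor hits first found in an ultra-high-throughput screen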
T1 sequence (P65502 whole entry): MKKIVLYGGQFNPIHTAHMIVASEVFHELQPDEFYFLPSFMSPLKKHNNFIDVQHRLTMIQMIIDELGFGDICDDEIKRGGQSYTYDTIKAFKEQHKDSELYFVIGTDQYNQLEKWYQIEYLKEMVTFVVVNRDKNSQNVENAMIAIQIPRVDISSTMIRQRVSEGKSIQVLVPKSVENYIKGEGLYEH

[3] = molecular target: Induced myeloid leukemia cell differentiation protein Mcl-1 (Homo sapiens, UniProt Q07820); format: functional
[4] = molecular target: T1, Probable nicotinate-nucleotide adenylyltransferase; format: functional, Staphylococcus aureus subsp. aureus N315
NS3 = NS3 (Hepatitis C virus, UniProt A3EZJ3); test: PubChem AID 2173; design: species or system Hepacivirus hominis
Sequence of NS3 (A3EZJ3 whole entry): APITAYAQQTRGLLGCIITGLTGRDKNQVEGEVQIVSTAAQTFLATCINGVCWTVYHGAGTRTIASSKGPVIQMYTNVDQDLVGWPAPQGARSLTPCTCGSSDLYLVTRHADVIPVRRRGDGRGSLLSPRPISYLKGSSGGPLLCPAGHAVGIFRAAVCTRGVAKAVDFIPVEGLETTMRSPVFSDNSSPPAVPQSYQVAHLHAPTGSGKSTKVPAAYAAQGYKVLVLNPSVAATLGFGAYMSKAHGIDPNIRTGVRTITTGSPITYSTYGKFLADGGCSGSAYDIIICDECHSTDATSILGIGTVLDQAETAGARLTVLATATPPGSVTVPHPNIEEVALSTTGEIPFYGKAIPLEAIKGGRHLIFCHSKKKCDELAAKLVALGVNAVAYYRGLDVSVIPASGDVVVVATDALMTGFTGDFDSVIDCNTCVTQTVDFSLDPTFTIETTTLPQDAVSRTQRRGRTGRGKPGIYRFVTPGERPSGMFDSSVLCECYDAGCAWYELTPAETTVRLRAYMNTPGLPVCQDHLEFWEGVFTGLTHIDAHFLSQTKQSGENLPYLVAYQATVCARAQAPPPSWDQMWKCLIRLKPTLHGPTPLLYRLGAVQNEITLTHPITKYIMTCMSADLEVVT

[5] = HEp-2 cell cytotoxicity, dose response, cytotoxicity control for RSV inhibitor project, HTS (AID 2410); format: functional; details: human respiratory syncytial virus
[6] = molecular target: Transitional endoplasmic reticulum ATPase (Homo sapiens, UniProt P55072); test: p97 ATPase inhibitors, dose response, biochemical (AID 1534)
Sequence of Transitional endoplasmic reticulum ATPase (Homo sapiens, UniProt P55072) (P55072 whole entry): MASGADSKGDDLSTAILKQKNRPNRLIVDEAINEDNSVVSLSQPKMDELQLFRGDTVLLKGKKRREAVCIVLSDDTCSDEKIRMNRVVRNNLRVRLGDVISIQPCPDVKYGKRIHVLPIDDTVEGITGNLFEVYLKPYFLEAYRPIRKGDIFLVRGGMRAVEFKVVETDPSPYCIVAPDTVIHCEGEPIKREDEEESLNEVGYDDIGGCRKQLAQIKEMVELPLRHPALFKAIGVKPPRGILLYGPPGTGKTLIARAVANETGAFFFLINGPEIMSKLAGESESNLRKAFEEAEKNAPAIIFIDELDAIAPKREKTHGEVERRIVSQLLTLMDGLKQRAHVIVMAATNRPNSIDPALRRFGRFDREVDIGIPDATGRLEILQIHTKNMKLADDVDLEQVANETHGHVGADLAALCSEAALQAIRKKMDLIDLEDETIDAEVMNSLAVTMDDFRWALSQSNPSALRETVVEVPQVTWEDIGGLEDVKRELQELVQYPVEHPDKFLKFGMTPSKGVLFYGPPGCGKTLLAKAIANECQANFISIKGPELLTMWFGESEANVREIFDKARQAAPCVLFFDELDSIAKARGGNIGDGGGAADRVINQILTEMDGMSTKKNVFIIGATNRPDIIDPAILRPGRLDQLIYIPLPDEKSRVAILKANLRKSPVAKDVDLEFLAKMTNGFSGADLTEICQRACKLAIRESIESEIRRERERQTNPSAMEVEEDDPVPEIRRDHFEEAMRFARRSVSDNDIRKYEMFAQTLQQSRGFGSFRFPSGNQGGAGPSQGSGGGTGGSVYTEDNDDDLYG

[7] = molecular target: Transitional endoplasmic reticulum ATPase (Homo sapiens, UniProt P55072, C522A); test: C522A mutant p97 ATPase inhibitors, dose response, counter-screen for p97 inhibitor project, biochemical, luminescence (AID 1544)
Sequence of Transitional endoplasmic reticulum ATPase (Homo sapiens, UniProt P55072, C522A) (P55072 2-806 C522A limits assumed): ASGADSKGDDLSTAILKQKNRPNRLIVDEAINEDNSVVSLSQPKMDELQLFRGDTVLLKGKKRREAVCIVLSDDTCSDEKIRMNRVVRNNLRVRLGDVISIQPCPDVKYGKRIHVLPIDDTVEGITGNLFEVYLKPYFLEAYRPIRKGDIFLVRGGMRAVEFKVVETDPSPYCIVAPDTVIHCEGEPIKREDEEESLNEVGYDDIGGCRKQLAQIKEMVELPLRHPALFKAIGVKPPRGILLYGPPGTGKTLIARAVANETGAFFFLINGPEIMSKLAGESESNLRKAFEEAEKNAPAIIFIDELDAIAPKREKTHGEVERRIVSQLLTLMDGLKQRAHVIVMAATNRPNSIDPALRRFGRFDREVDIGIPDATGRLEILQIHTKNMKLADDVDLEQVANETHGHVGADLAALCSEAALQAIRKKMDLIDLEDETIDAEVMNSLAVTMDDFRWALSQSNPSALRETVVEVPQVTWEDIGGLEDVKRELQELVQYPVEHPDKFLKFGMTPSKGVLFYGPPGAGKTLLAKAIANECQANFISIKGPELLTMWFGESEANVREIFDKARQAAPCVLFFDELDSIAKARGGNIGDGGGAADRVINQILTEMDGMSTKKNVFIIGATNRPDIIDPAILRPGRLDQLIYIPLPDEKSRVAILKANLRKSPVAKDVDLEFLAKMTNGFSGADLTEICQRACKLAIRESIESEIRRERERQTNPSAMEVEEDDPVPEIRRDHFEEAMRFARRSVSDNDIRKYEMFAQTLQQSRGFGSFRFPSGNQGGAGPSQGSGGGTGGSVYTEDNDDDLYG

[8] = molecular target: Peroxisome proliferator-activated receptor gamma/Nuclear receptor coactivator 2 (Homo sapiens, UniProt P37231); format: functional;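 further: agonist potency for raising coactivator recruitment to the receptor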
Sequence of Peroxisome proliferator-activated receptor gamma/Nuclear receptor coactivator 2 (P37231 whole entry): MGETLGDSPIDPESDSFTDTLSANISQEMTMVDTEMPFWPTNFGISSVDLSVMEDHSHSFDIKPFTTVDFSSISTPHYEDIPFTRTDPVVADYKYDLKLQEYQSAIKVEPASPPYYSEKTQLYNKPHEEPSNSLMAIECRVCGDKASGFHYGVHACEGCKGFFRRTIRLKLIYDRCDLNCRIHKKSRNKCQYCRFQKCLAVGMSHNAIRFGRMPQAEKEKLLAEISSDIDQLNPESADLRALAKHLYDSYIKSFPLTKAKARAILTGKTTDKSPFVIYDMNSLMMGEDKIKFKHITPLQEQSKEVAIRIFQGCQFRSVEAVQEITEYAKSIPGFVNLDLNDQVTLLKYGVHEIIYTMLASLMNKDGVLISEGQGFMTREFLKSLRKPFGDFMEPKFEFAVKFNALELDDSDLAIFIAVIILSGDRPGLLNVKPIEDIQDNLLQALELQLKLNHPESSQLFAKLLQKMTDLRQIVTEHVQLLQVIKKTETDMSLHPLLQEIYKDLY
Sequence of Peroxisome proliferator-activated receptor gamma/Nuclear receptor coactivator 2 (Q15596 whole entry, further chain): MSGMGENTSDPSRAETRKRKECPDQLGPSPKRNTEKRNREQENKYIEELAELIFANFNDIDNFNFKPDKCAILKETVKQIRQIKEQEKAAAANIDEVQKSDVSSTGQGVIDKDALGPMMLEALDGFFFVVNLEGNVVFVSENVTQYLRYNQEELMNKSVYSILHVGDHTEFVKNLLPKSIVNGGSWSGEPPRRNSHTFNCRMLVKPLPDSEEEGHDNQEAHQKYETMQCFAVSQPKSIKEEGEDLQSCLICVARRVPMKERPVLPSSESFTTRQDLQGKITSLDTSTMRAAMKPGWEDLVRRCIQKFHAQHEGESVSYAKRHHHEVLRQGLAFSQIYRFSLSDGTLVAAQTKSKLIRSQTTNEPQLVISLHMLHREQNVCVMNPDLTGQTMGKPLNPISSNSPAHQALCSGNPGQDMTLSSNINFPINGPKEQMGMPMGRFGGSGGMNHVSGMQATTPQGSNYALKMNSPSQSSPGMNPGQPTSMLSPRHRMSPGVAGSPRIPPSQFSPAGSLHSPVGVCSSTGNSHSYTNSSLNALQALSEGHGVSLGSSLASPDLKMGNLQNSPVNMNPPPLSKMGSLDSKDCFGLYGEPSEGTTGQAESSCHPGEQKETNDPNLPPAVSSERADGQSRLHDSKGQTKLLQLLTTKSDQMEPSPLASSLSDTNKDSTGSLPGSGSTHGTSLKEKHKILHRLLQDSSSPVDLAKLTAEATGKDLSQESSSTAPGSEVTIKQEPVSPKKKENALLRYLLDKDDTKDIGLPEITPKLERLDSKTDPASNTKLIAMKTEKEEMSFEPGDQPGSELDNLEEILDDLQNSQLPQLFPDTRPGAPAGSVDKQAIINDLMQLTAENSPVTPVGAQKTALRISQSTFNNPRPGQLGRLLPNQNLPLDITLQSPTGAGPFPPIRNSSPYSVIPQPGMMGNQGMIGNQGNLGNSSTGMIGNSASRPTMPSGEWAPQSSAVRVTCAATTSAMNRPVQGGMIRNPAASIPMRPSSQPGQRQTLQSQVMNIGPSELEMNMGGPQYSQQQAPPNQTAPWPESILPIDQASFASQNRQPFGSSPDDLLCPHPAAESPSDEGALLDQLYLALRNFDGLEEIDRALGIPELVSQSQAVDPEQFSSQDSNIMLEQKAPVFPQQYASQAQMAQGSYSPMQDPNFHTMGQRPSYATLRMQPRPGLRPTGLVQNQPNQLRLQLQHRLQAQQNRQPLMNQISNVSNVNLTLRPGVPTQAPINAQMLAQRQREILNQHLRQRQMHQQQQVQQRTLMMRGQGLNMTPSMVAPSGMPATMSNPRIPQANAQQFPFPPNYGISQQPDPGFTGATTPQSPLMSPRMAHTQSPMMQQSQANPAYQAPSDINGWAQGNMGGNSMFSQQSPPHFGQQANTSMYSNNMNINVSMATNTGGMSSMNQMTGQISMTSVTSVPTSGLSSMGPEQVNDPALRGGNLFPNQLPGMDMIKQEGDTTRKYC

[9] = molecular target: Peroxisome proliferator-activated receptor gamma/Nuclear receptor coactivator 1 (Homo sapiens, UniProt P37231); format: functional;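 further: agonist potency as compounds enhance coactivator SRC-1 recruitment to PPARgamma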
[10] = molecular target: T2, Heat shock factor protein 1 (Mus musculus, UniProt P38532); test: inhibition of MG132-induced HSE-luciferase signal, confirmation, cell-based, NIH3T3, luminescence, dose retest (AID 2382); format: functional;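 further: NIH3T3 fibroblasts with HSF1-driven luciferase reporter stressed by proteasome inhibitor MG132; luminescence from HSF1-driven luciferase expression after 8 hours of MG132 stress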
T2 sequence (P38532 whole entry): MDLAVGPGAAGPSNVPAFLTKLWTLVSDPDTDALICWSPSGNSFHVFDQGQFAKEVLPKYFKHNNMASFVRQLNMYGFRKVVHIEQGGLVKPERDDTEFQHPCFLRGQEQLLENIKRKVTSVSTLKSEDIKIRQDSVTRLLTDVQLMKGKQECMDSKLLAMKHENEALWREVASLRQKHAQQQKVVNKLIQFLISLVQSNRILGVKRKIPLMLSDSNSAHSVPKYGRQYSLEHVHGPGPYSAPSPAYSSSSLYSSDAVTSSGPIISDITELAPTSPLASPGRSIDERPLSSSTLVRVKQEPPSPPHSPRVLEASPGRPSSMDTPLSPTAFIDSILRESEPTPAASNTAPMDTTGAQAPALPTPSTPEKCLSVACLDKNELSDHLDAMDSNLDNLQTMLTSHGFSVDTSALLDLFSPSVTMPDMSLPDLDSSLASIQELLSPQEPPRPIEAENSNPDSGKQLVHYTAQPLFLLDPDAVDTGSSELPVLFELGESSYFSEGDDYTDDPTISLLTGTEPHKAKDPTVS

[11] = molecular target: Peroxisome proliferator-activated receptor gamma/Nuclear receptor coactivator 3 (Homo sapiens, UniProt P37231); format: functional;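 further: agonist potency for raising coactivator recruitment to the receptor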
[12] = molecular target: T3, Mannose-6-phosphate isomerase (Homo sapiens, UniProt P34949); test: human PMI inhibitors, high substrate, primary screen, biochemical, fluorescence intensity, high mannose 6-phosphate (AID 1220)
T3 sequence (P34949 whole entry): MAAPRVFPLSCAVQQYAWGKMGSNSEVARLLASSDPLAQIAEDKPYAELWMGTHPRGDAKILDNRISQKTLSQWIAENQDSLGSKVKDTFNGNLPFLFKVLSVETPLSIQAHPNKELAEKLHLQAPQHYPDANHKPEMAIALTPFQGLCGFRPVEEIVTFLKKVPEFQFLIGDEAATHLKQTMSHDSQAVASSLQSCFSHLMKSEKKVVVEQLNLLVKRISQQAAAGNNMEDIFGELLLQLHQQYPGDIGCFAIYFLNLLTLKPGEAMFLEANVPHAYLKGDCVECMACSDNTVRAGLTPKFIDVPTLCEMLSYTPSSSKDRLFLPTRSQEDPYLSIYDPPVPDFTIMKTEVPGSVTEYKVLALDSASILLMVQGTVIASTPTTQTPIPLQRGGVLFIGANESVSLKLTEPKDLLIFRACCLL

Vero = Vero cell cytotoxicity, cytotoxicity control for flavivirus capping enzyme inhibitors (AID 588742); format: functional; details: Chlorocebus sabaeus
Nonstructural protein 1 = Nonstructural protein 1 (Influenza A virus, UniProt Q194T2); format: functional, Influenza A virus (A/California/07/2009(H1N1))
[13] = inhibitors of intracellular T. cruzi replication, confirmation, NIH3T3 host cells, beta-gal luminescence (AID 2044); format: functional, cell-based;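 further: intracellular parasites grown in NIH/3T3 mouse fibroblasts as host cells; luminescent beta-galactosidase reporter signal from transgenic T. cruzi replicating inside host cells; inhibitors lower the luminescence signal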
[14] = cytotoxicity toward NIH3T3 fibroblasts, dose response, counter-screen, cell-based, ATP luminescence, mouse fibroblasts (AID 2010); format: functional;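 further: cells exposed to compound for about 90 hours before reading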
[15] = molecular target: T4, Alkaline phosphatase, tissue-nonspecific isozyme (Homo sapiens, UniProt P05186)
T4 sequence (P05186 whole entry): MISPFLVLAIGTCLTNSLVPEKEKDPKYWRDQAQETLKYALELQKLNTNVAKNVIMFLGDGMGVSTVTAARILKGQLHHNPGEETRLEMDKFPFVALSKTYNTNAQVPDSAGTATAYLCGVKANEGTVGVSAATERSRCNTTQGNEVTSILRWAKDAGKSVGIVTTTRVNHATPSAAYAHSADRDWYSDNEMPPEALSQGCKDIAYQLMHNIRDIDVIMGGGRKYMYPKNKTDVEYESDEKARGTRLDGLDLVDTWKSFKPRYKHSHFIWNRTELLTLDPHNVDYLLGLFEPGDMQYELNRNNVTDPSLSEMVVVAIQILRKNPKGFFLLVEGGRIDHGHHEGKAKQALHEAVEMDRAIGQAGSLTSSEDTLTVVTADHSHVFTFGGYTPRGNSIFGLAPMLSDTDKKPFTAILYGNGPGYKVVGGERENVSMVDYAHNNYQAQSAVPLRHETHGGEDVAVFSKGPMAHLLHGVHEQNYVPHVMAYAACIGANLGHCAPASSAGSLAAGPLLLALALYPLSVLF

[16] = Luminescence Cell-Based Dose Confirmation HTS to Identify Inhibitors of Polyadenylation.; format: functional
[17] = cytotoxicity in HEK-293T cells, dose response, cytotoxicity control for BCR NF-kB inhibitor project, luminescence, B-cell screen hits (AID 489021); format: functional, cell-based;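 further: HEK-293T cells carrying an NF-kB luciferase reporter; cells exposed to compound for about 14 hours before viability readout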
[18] = molecular target: Sphingosine 1-phosphate receptor 4 (Homo sapiens, UniProt O95977); test: Fluorescence dose response cell-based high throughput screening assay for antagonists of the Sphingosine 1-Phosphate Receptor 4 (S1P4). [Related pubchem assays: 1524 (Confirmation in triplicates.), 1510 (Primary screen.)]; format: functional
Streptokinase A = molecular target: T5, Streptokinase A (Streptococcus pyogenes serotype M1, UniProt P10520); test: S. pyogenes streptokinase expression inhibitors, potency, dose response, plasminogen activation absorbance, OD405 (AID 1914); format: functional, Streptococcus pyogenes M1 GAS;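 further: secreted streptokinase activity via plasminogen activation per viability signal from cell pellet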
T5 sequence (P10520 whole entry): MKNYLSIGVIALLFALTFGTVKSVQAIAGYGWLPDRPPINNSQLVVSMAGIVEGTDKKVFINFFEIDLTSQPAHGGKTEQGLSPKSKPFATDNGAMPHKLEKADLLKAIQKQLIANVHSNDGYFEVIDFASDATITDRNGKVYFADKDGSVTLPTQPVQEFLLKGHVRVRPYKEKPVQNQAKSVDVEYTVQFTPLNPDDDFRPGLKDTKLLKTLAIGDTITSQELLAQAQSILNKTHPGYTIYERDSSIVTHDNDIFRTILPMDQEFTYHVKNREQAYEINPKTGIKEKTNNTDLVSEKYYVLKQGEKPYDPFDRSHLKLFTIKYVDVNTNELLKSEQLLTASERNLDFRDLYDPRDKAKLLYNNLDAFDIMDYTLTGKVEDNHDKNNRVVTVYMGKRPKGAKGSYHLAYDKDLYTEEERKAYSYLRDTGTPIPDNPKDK

[19] = system: Streptococcus sp. 'group A'; test: growth inhibition of control SK(-) GAS strain, dose response, counter-screen for streptokinase expression inhibitor project, luminescence, kanamycin, BacTiterGlo, confirmation (AID 1900); format: functional, organism-based
Streptococcus = test: Group A Streptococcus viability loss, dose response, counter-screen for streptokinase expression inhibitor project, luminescence, BacTiterGlo (AID 1915); format: functional, organism-based;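 further: potency for reduction of bacterial viability or growth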
[20] = molecular target: Disintegrin and metalloproteinase domain-containing protein 17 (Homo sapiens, UniProt P78536); test: ADAM17 protease inhibitors, dose response, counter-screen for ADAM10 exosite inhibitor project, biochemical, quenched FRET substrate (AID 743253)
X-box-binding protein 1 = X-box-binding protein 1 (Homo sapiens, UniProt P17861); format: functional, Cricetulus griseus;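 further: confirmatory dose-response counter-screen serving a CHOP assay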
Sequence of X-box-binding protein 1 (P17861 whole entry): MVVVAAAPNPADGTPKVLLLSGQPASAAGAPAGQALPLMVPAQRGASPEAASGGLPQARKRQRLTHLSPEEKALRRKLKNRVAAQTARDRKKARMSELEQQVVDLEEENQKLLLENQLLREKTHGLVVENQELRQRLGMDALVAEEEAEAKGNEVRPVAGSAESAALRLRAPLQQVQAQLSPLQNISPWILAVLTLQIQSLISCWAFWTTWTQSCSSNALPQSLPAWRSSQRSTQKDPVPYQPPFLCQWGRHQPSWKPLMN

[21] = Luminescence Cell-Based Dose Retest to Confirm Inhibitors of Cancer Stem Cells. [Related pubchem assays (depositor defined):AID2717, AID2721]; format: functional; details: Homo sapiens
[22] = growth suppression of PTEN-null colon cells, dose response, cell-based, HCT116 PTEN knockout (AID 1047); format: functional;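 further: HCT116 colon tumor cells with PTEN knocked out; cells exposed to compound for 60 hours before readout; potency for loss of cell viability measured by luminescence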
[23] = growth suppression of beta-catenin-knockout colon cells, dose response, cell-based, HCT116, human colon tumor (AID 1045); format: functional;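 further: HCT116 colon tumor cells with beta catenin knocked out; cells exposed to compound for 60 hours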
H9c2 = test: cells; format: functional, cell-based; details: Rattus norvegicus, H9c2, Myocardium;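 further: confirmatory concentration-response retest of ultra-high-throughput screening hits for modulation of myocardial damage; cell death induced by hydrogen peroxide oxidative stress; compound pretreatment for 60 min then peroxide exposure for 2 h; potency is for protecting the cells against peroxide damage rather than for killing them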
Estrogen receptor beta = Estrogen receptor beta (Homo sapiens, UniProt Q92731);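 further: recombinant ER-beta bound to coactivator SRC1 peptide in presence of estradiol agonist; inhibitors block coactivator peptide binding and lower the FRET signal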
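Wherever AC50 is given: cells exposed to compound for roughly 70 hours or longer before luminescence read.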

Sequence of 14-3-3 protein gamma (P61981 whole entry): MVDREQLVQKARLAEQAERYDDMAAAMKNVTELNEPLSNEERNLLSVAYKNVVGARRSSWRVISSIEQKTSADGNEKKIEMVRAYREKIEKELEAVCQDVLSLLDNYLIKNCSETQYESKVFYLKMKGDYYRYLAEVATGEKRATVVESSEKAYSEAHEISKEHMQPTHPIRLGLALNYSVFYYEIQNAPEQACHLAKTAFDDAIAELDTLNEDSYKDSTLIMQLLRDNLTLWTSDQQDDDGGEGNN

Structure (SMILES): CN(Cc1ccccc1)C(=S)NC(=O)c1ccc(-c2ccccc2)cc1
- CC50 [1]: > 40 µM (active)

Structure (SMILES): C#CCN(C)C(C)Cc1ccccc1 (centres undefined)
- IC50 (14-3-3 protein gamma): > 50 µM (not active)

Structure (SMILES): CN(C)C=O.O=C(Nc1cccc(S(=O)(=O)NC2=NCCCCC2)c1)c1cc(-c2ccco2)nc2ccccc12
- IC50 (Genome polyprotein): > 49.8 µM (not active)
- IC50 [2]: 23.1 µM (active)
- IC50 [3]: 1.69 µM (active)
- IC50 [4]: 6.77 µM (active)

Structure (SMILES): Cc1cc(N2CCCCCC2)nc(-c2ccccc2O)n1
- CC50 [1]: > 40 µM (active)

Structure (SMILES): O=C(CCCSc1ccccc1)Nc1nc(-c2ccco2)c(-c2ccco2)s1
- IC50 (NS3): 5.62 µM (active)

Structure (SMILES): CC(C)c1nc2sc3c(S)ncnc3c2c2c1CCC2
- CC50 [5]: 14.3 µM (active)
- IC50 [6]: 42.2 µM (not active)
- IC50 [7]: > 50 µM (not active)

Structure (SMILES): Cc1ccc(CN2CCN(Cc3cccc(OCCO)c3)CC2CCO)o1 (centres undefined)
- EC50 [8]: > 79.4 µM (not active)
- EC50 [9]: > 79.4 µM (not active)
- EC50 [10]: > 195 µM (not active)
- EC50 [11]: > 79.4 µM (not active)

Structure (SMILES): C=CCN1C=C/C(=C/c2ccc3cc(C)ccc3[n+]2CC)c2ccccc21
- IC50 [12]: 32.9 µM (active)
- CC50 (Vero): 4.96 µM (active)
- IC50 (Nonstructural protein 1): 7.64 µM (active)

Structure (SMILES): C=CCn1c(SCC(=O)NCCCC)nc2scc(-c3ccco3)c2c1=O
- IC50 (NS3): 37.5 µM (not active)

Structure (SMILES): O=C(Nc1ccncc1)Nc1cccc(Cl)c1Cl
- EC50 (cells): 0.209 µM (active)
- EC50 [13]: < 0.1 µM (active)
- EC50 [14]: > 60 µM (not active)

Structure (SMILES): Cc1cc(C)c(NC(=O)Cn2c(=O)n(-c3ccc(CC(=O)NCC4CCCO4)cc3)c(=O)c3ccccc32)c(C)c1 (centres undefined)
- EC50 [15]: > 100 µM (not active)

Structure (SMILES): COC(=O)C1=C(C)N(C)C(C)=C(C(=O)OC)C1c1ccc(C(=O)OC)cc1
- IC50 (14-3-3 protein gamma): > 50 µM (not active)

Structure (SMILES): CC(c1ccccc1)C(Cc1nc2ccccc2[nH]1)c1nc2ccccc2[nH]1 (centres undefined)
- EC50 [15]: 61.3 µM (not active)

Structure (SMILES): CCN(CC)C(=O)Oc1ccc2c(c1)O/C(=C\c1ccco1)C2=O
- EC50 [16]: > 120 µM (not active)

Structure (SMILES): CCc1ccc(/C=C2\SC(=S)N(CCC(=O)NC3=NCCS3)C2=O)cc1
- IC50 [17]: > 80 µM (inactive)

Structure (SMILES): CN[C@H]1C[C@H]2O[C@@](C)([C@H]1OC)n1c3ccccc3c3c4c(c5c6ccccc6n2c5c31)C(=O)NC4
- IC50 [18]: 0.183 µM (active)

Structure (SMILES): COc1ccc(CCN2C(=O)c3[nH]nc(-c4ccccc4O)c3C2c2cccc(Cl)c2)cc1 (centres undefined)
- EC50 (Streptokinase A): 17.1 µM (active)
- EC50 [19]: 5.5 µM (active)
- EC50 (Streptococcus): 17.6 µM (active)
- IC50 [20]: > 69.5 µM (inactive)
- Absolute IC50 (XBP1) (X-box-binding protein 1): 10 µM

Structure (SMILES): Cc1cc(C2(c3ccc(O)c(C)c3)C(=O)Nc3ccccc32)ccc1O
- AC50 [21]: 5.36 µM (active)
- EC50 [22]: 17.4 µM (active)
- EC50 [23]: 17 µM (active)
- Absolute IC50 (XBP1) (X-box-binding protein 1): 10 µM

Structure (SMILES): O=C(Nc1ccc(F)cc1)C1C(c2ccccc2)C1(Cl)Cl (centres undefined)
- IC50 [6]: > 50 µM (not active)
- IC50 [7]: > 50 µM (not active)

Structure (SMILES): CCOC(=O)c1s/c(=N\C(=O)c2cc(OC)c(OC)c(OC)c2)n(C)c1C
- EC50 [8]: 30 µM (not active)
- EC50 [9]: 42 µM (not active)
- EC50 [11]: 49.7 µM (not active)

Structure (SMILES): NC(=O)c1cccc2c1C(=O)N(C1CCCCC1)C2
- IC50 (H9c2): > 79 µM (inactive)
- IC50 (Estrogen receptor beta): 12.5 µM (active)

Reference: ChEMBL document CHEMBL1201862, “PubChem BioAssay data set” (2004)
